Results as given in US20090255006A1, “Transgenic Zebrafish” (University of Georgia Research Foundation, Inc., priority 2008, published 2009).
Entries after “also recorded” stand apart in the source; their conditions may differ. Like-named read-outs stand apart in the source and are kept apart here. Values belong to the molecule of their own block, whether it stands above or below them.

How the values were obtained:
sqt and cyc transcripts = test: Targeted injection of morpholinos into the YSL, morphology of live embryos; assay type: in vivo, zebrafish; conditions: 8 ng MO into YSL at 3 hpf
Method: Wild-type embryos were obtained from natural crosses of Wik fish. Collected embryos were maintained at 28.5° C. and staged according to morphological criteria (Kimmel et al., Dev. Dyn., 203:253-310 (1995). Translation blocking morpholinos against sqt and cyc have been described previously (Feldman and Stemple, Genesis, 30: 175-177 (2001); Karlen and Rebagliati, Genesis, 30: 126-128 (2001). The MO sequences are as follows: sqtMO: 5′-[…]-3′ (SEQ ID NO:1); sqtMIS: ATcTgAAAATgAAGcTAATAATgCAC-3′ (SEQ ID NO:2); cycMO: 5′-[…]-3′ (SEQ ID NO:3); cycMIS: 5′-GCcACTgCGAaGTGTGgTcAT-3′(SEQ ID NO:4). Nucleotides in lower case represent mismatches. The sqtMOs were tagged with lissamine, while the cycMOs were tagged with fluorescein. Embryos were injected with each MO at 3 hpf soon after formation of the YSL. The distribution of the MO in the YSL was verified 2 h after injection. Embryos with mislocalized MOs were removed from the experiments.
To test if sqt and cyc are required in the YSL, their function in this tissue was specifically knocked down by targeted injection of antisense morpholinos (MOs) directed against sqt and cyc transcripts. […] When cyc function alone is depleted from the YSL, all embryos have normal shields (100%, N=36) (FIG. 5E, arrow). At 24 hpf, the cyc-depleted embryos, are indistinguishable from embryos injected with control MOs (100%, N=22) (FIG. 5F). When sqt function is depleted from the YSL, by contrast, the majority of embryos lack the embryonic shield ([…], N=11) (FIG. 5G).

Nodal receptors [1] = conditions: cited from earlier work
Nodal receptors [2] = test: Block of Nodal signaling with SB-505124 in Tg-SqtapGFPi embryos, gfp in situ hybridization; assay type: in vivo, zebrafish; conditions: 50 μM

Molecule: sqtMO: translation blocking morpholino against sqt, 5′-ATGTCAAATCAAGGTAATAATCCAC-3′ (SEQ ID NO:1), tagged with lissamine (all phosphorodiamidate morpholino (PMO); lissamine tag, position not given here)
embryos lacking the embryonic shield (sqt and cyc transcripts; 6 hpf): 54%
embryos displaying mild cyclopia (sqt and cyc transcripts; 24 hpf): 16%

overall levels of gfp expression (Nodal receptors [2]): reduced
Molecule: Cc1cccc(-c2[nH]c(C(C)(C)C)nc2-c2ccc3c(c2)OCO3)n1 [SB-505124]
phenotype of treated embryos (Nodal receptors [1]; 50 μM, added to embryos at 3 hpf or earlier): sufficient to phenocopy embryos lacking nodal-related gene function
phenotype of treated embryos (Nodal receptors [1]; later treatments, or lower doses): milder phenotypes
gfp expression in the EVL (Nodal receptors [2]): reduced, but not eliminated; also recorded: reduced to a greater extent
gfp expression in the YSL (Nodal receptors [2]): consistently reduced, but not completely eliminated; also recorded: persists
gfp expression in the blastomeres (Nodal receptors [2]): eliminated; also recorded: reduced to a greater extent

Molecule: cycMO: translation blocking morpholino against cyc, 5′-GCGACTCCGAGCGTGTGCATGATG-3′ (SEQ ID NO:3), tagged with fluorescein (all phosphorodiamidate morpholino (PMO); fluorescein tag, position not given here)
embryos with normal shields (sqt and cyc transcripts; 6 hpf): 100%
embryos indistinguishable from embryos injected with control MOs (sqt and cyc transcripts; 24 hpf): 100%
